How the values were obtained:
[1] = system: p210-transformed FDC-P1 cells; test: Proliferation of p210 bcr/abl-transformed FDC-P1 myeloid cells; assay type: cell-based, murine
Experimental: (§1) (The p210 bcr/abl oncogene is carried on a helper-free retrovirus referred to as "p210.") FDC-P1 myeloid cells are an immature cell line from myeloid lineage derived from mouse bone marrow (Dexter, TM, J. Exp. Med. 152: 1036-1047, 1980).

[2] = system: nontransformed FDC-P1 cells; test: Proliferation of nontransformed FDC-P1 myeloid cells; assay type: cell-based, murine; details: Mus musculus, FDC-P1, read-out: inhibition of cell growth
Experimental: as §1

[3] = system: isoprenylation of 21-26 kDa proteins in NIH3T3 (mouse embryo) cells; test: Protein isoprenylation in NIH3T3 cells (21-26 kDa bands, SDS-PAGE fluorography); assay type: cell-based; design: Relative activity (inhibition of isoprenylation of 21-26 kDa proteins): key to the marks not given beside the values; details: Experiment 2; 1 mM
Experimental: NIH3T3 (mouse embryo) cells were obtained from the American Type Culture Collection and were grown in Dulbecco's modified Eagle's medium supplemented with 10% calf serum. […] Because they carried a radioactive label, isoprenylated proteins were visualized by fluorography. As a control, cells were incubated without the monoterpene. […] Whole cell extracts were analyzed by SDS-PAGE on 16-cm×18-cm×0.75-mm gels by the method of Laemmli (supra). […] Gels were stained with Coomassie Brilliant Blue, equilibrated for 20 minutes in Amplify (Amersham Corp.) fluorographic reagent, dried under vacuum at 65° C., and exposed to […] Some fluorograms were analyzed further by densitometry. […] Protein content was measured by the method of Lowry, et al. […] FIG. 1 depicts the structures of these monoterpenes.

[4] = system: M600B cells; test: Inhibition of M600B cell growth; assay type: cell-based, human; details: FIG. 4
Experimental: (§2) NIH3T3 (mouse embryo) cells were obtained from the American Type Culture Collection and were grown in Dulbecco's modified Eagle's medium supplemented with 10% calf serum. M600B immortalized human mammary epithelial cells (Stampfer, M. R., 1985, J. Tissue Culture Methods 9: 107-115) were obtained from Dr. Martha Stampfer and were grown in supplemented HCDB 170 medium (Hammond, et al. (1984) Proc. Natl. Acad. Sci U.S.A. 81: 5435-5439), as described previously (Stampfer, et al. (1985) Proc. Natl. Acad. Sci U.S.A. 82: 2394-2398; Eldridge, et al. (1989) Cancer Res. 49: 4326-4331).
(§3) All cells were maintained in 100-mm dishes at 37° C. in a humidified 5% CO2 atmosphere. Viable cells were distinguished from nonviable cells by counting azure II/methylene blue-stained colonies 10 days after the cells were plated at a density of 100 cells per dish. Trypan blue exclusion was measured by incubating cells for 1 minute with one drop of trypan blue per 10 ml of cells. Viable (colorless) and nonviable (blue) cells were then counted on a hemocytometer.
(§4) Additionally, growth of HT29 (human colon adenocarcinoma) cells was inhibited by 80% by 1 mM perillyl alcohol.

[5] = Pharmacologic analysis of serum concentration in rats; assay type: in vivo; details: rats fed 2% perillyl alcohol
Excerpt: In light of these observations, and our belief that p21^ras may be a target for perillyl alcohol activity in bcr/abl-transformed cells, it may be relevant that cellular ras activity is required for proliferating cells to pass through G1 (Dobrowski, et al., Mol. Cell Biol. 14: 5441-49, 1994).

[6] = system: NIH3T3 cells; test: Inhibition of NIH3T3 cell growth; assay type: cell-based, mouse; details: FIG. 3
Experimental: as §2, §3, §4

[7] = system: p210 transformed FDC-P1 cells (F-p210.1); test: Cell cycle distribution of p210-transformed FDC-P1 cells; assay type: cell-based, murine; details: for Cell cycle distribution (% > GO /G1): untreated control 53; for arrest at the G0/G1 stage: 500 μM
Experimental: Table 3 tabulates the effect of P-OH on cell cycle distribution of nontransformed and p210 transformed FDC-P1 cells.
^1 Cells were plated at 2.5 × 10^5 per ml in duplicate well
of a 24well plate in the presence of 10% WEHI3-conditioned media as a
source of IL3 and with the indicated concentration of P--OH. After 24
hours, the cells were fixed in ethanol, permeabilized and stained with
propidium iodide, then analyzed for DNA content by flow cytometry.
^2 FDCP1 = nontransformed cells, Fp210.1 = 210transformed FDCP1 cells

[8] = system: human cancer cell lines; test: Growth of human cancer cell lines (NCI Developmental Therapeutics Program); assay type: cell-based
Experimental: Various concentrations of perillyl alcohol inhibited the growth of a number of human cancer cell lines. FIG. 5A-G is a set of diagrams showing the effects of perillyl alcohol on different cancer cell lines. These experiments were conducted by the National Cancer Institute Developmental Therapeutics Program.

**Q.** With C=C(C)[C@@H]1CC=C(CO)CC1 [perillyl alcohol] as the molecule, how does the “growth inhibition, transformed versus nontransformed cells” value ([1]; 100-800 μM, FIG. 9B) read?
**A.** significantly more inhibitory for the growth of p210-transformed FDC-P1 cells compared to nontransformed FDC-P1 cells

**Q.** And the “growth-inhibitory curve with added IL-3” value ([1]; IL-3 added)?
**A.** significantly shifted upward

**Q.** What about the inhibition at 400 µM ([1]; Mus musculus, FDC-P1, read-out: inhibition of growth) of the same molecule?
**A.** > 80%

**Q.** And the “reversion of autonomously growing malignant cells” value ([1]; conclusion from in vitro results)?
**A.** reverts autonomously growing malignant cells to a factor-dependent, apoptosis-sensitive state

**Q.** What about the inhibition at 400 µM [2] of the same molecule?
**A.** < 15%

**Q.** And the “Relative activity (inhibition of isoprenylation of 21-26 kDa proteins)” value [3]?
**A.** +++++

**Q.** What about the “inhibition of cell growth” value [4] of the same molecule?
**A.** significantly inhibited cell growth in a dose-dependent manner

**Q.** And the “serum concentration relative to the in vitro effective concentration range” value [5]?
**A.** within the effective concentration range observed in these in vitro experiments

**Q.** What about the “inhibition of cell growth” value [6] of the same molecule?
**A.** significantly inhibited cell growth in a dose-dependent manner

**Q.** What about the “Cell cycle distribution (% > GO /G1)” value ([7]; 100 μM P--OH, 24 hours) of the same molecule?
**A.** 53%

**Q.** And the apoptosis ([7]; 500 μM P--OH, 24 hours)?
**A.** Significant apoptosis

**Q.** And the “Cell cycle distribution (% > GO /G1)” value ([7]; 500 μM P--OH, 24 hours)?
**A.** 16%

**Q.** And the “arrest at the G0/G1 stage” value ([7]; 24 hours)?
**A.** almost completely arrested at the G0 /G1 stage

**Q.** What about the “arrest at the G0/G1 stage” value ([7]; 24 hours, listed as P--OH) of the same molecule?
**A.** entirely in the G0 /G1 stage of the cell cycle

**Q.** And the morphological changes ([7]; up to 500 μM)?
**A.** morphological changes suggestive of apoptotic cell death

**Q.** And the “inhibition of cell growth” value ([8]; variety of human cancer cell types including leukemia cells (FIG. 5A))?
**A.** inhibition of cell growth

**Q.** What about the “inhibition of cancer cell growth” value ([8]; various concentrations, FIG. 5A-G, all lines) of the same molecule?
**A.** inhibited cancer cell growth
